# Experimental data: BindingDB's records for doi:10.1080/14756360600991017 (University of Athens, 2007)
# Target: T1, Seed linoleate 13S-lipoxygenase-1 (Glycine max, UniProt P08170)
# T1 sequence (P08170 whole entry): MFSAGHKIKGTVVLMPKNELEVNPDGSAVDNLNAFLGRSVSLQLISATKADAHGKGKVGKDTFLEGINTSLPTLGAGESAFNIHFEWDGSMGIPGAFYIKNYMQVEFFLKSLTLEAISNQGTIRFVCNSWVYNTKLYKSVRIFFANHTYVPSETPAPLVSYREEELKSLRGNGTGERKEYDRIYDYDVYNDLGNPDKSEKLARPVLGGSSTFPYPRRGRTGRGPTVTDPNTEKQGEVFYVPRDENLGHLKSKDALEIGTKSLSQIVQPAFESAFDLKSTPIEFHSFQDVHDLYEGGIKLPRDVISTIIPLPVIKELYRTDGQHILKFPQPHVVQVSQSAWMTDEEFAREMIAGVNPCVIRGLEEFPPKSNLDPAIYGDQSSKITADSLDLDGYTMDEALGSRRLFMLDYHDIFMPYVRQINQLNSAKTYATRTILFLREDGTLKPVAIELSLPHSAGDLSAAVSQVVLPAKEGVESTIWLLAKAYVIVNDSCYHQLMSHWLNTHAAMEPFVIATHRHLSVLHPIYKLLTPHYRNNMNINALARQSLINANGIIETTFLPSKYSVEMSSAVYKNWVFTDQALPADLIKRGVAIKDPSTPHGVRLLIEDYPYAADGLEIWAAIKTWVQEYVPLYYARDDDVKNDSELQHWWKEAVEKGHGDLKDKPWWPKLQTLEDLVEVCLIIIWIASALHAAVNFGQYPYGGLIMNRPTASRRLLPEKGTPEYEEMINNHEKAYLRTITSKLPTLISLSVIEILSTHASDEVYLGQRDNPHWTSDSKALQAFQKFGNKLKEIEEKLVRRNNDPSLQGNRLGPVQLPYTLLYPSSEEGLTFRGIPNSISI
# Experiment: Inhibition Assay
# Details: 25 °C
# Description: soybean lipoxygenase and linoleic acid sodium salt were obtained from Sigma Chemical, Co. in St. Louis, MO. Each experiment of the in vitro assay was performed at least in triplicate and the standard deviation of absorbance was less than 10% of the mean.
row,IC50,Compound
1,560 µM,"O=C(O)C[C@H]1CCC(=O)[C@@H]1C/C=C/CCO[C@H]1OC(CO)[C@H](O)C(O)[C@H]1O (some centres undefined) [12-hydroxy-jasmonic acid 12-O-B-glucoside, 4]"
2,1000 µM,"O=C(/C=C/c1ccc(O)c2c1C(C(=O)O[C@@H](Cc1ccc(O)c(O)c1)C(=O)O)[C@@H](c1ccc(O)c(O)c1)O2)O[C@H](Cc1ccc(O)c(O)c1)C(=O)O (some centres undefined) [Lithospermic acid, 3]"
3,1150 µM,"O=C(/C=C/c1ccc(O)c(O)c1)O[C@H](Cc1ccc(O)c(O)c1)C(=O)O [Rosmarinic acid, 2]"
4,360 µM,"CC(C)C1=C[C@H](O)[C@@](C)(O[C@@H]2OC(CO)[C@@H](O)[C@H](O)C2O)CC1 (some centres undefined) [p-menth-3-ene-1,2-diol 1-O-B-glucopyranoside, 5]"
